Values after ≈ are worked out from the molar mass of the structure shown.
Columns and labels:
[1] = system: Human immunodeficiency virus 1; experiment: Antiviral activity against HIV1 harboring reverse transcriptase Y181C/K103N double mutant infected in primary MT4 cells assessed as inhibition of virus-induced cytopathogenicity after 4 days by MTS assay; type: functional, organism-based; conditions: Human immunodeficiency virus 1, MT4, 96 h
[2] = system: Human immunodeficiency virus 1; experiment: Antiviral activity against HIV1 harboring reverse transcriptase Y181C mutant infected in primary MT4 cells assessed as inhibition of virus-induced cytopathogenicity after 4 days by MTS assay; type: functional, organism-based; conditions: Human immunodeficiency virus 1, MT4, 96 h
[3] = Antiviral activity against HIV1 BH10 harboring wild type reverse transcriptase infected in primary MT4 cells assessed as inhibition of virus-induced cytopathogenicity after 4 days by MTS assay; type: functional, cell-based, Human immunodeficiency virus type 1 BH10; conditions: Human immunodeficiency virus 1, MT4, 96 h
[4] = system: Human immunodeficiency virus 1; experiment: Antiviral activity against HIV1 harboring reverse transcriptase K103N mutant infected in primary MT4 cells assessed as inhibition of virus-induced cytopathogenicity after 4 days by MTS assay; type: functional, organism-based; conditions: Human immunodeficiency virus 1, MT4, 96 h
[5] = Aqueous solubility of the compound at pH 7; type: physicochemical; conditions: aqueous medium
[6] = Selectivity ratio of EC50 for HIV1 harboring reverse transcriptase Y181C/K103N double mutant to EC50 for HIV1 BH10 harboring wild type reverse transcriptase; type: functional

Compound	EC50 [1]	EC50 [2]	EC50 [3]	EC50 [4]	solubility [5]	Ratio EC50 [6]
COP(=O)(c1cc(Cl)cc(Cl)c1)c1c(C(N)=O)[nH]c2ccc(Cl)cc12 (configuration not stated)	248 nM	1.7 nM	0.3 nM	19.9 nM	–	–
COP(=O)(c1cccc(C(C)C)c1)c1c(C(N)=O)[nH]c2ccc(Cl)cc12 (configuration not stated)	92.6 nM	8.4 nM	0.5 nM	1.6 nM	0.8 µM (≈ 0.313 µg/mL)	–
COP(=O)(c1cc(C)cc(C)c1)c1c(C(N)=O)[nH]c2ccc(Cl)cc12 (configuration not stated)	238 nM	15 nM	1 nM	4 nM	0.9 µM (≈ 0.339 µg/mL)	–
COP(=O)(c1cc(F)cc(F)c1)c1c(C(N)=O)[nH]c2ccc(Cl)cc12 (configuration not stated)	642 nM	6.5 nM	0.7 nM	25.5 nM	–	–
COP(=O)(c1cc(C)cc(/C=C/C#N)c1)c1c(C(N)=O)[nH]c2ccc(Cl)cc12 (single isomer, unassigned; form 2)	> 1250 nM	377 nM	190 nM	824 nM	–	–
COP(=O)(c1cc(C)cc(C#N)c1)c1c(C(N)=O)[nH]c2ccc(Cl)cc12 (configuration not stated)	162 nM	3.8 nM	1 nM	18.4 nM	–	–
COP(=O)(c1cc(C)cc(CCC#N)c1)c1c(C(N)=O)[nH]c2ccc(Cl)cc12 (configuration not stated)	28.5 nM	0.7 nM	0.7 nM	3.5 nM	–	–
COP(=O)(c1cc(C)cc(OCC#N)c1)c1c(C(N)=O)[nH]c2ccc(Cl)cc12 (configuration not stated)	111 nM	8.7 nM	0.08 nM	1.8 nM	–	> 1000
COP(=O)(c1cccc(-n2cccn2)c1)c1c(C(N)=O)[nH]c2ccc(Cl)cc12 (configuration not stated)	> 1000 nM	59 nM	4.5 nM	102 nM	–	–
COP(=O)(c1ccc(C)c(C)c1)c1c(C(N)=O)[nH]c2ccc(Cl)cc12 (configuration not stated)	792 nM	22.9 nM	0.2 nM	35 nM	–	–
COP(=O)(c1cccc2ccccc12)c1c(C(N)=O)[nH]c2ccc(Cl)cc12 (configuration not stated)	> 1000 nM	357 nM	17.5 nM	727 nM	–	–
